According to ChEMBL document CHEMBL1201862, “PubChem BioAssay data set” (2004):
Active and inactive are the calls of the source.

Columns and labels:
[1] = inhibitors of firefly luciferase expression or activity, dose response, H4 neuroglioma cells, luminescence (AID 1990); type: functional, cell-based
[2] = system: BJ; assay: cytotoxicity toward BJ-TERT fibroblasts, dose response, cell-based, RAS-independent, luminescence (AID 1933); type: functional; conditions: Homo sapiens
[3] = Luminescence Cell-Based Dose Response HTS to Identify Inhibitors of 5'UTR Stem-Loop Driven Prion Protein mRNA Translation in H4 Neuroglioblastoma Cells. [Related pubchem assays: 1827 (Project Summary), 1813 (Primary HTS)]; type: functional
[4] = inhibitors of SNCA 5'UTR-driven reporter translation, confirmation, H4 neuroglioma cells, luminescence (AID 1988); type: functional, cell-based
[5] = system: BJ; assay: cells; type: functional, cell-based; conditions: Homo sapiens
[6] = system: BJ; assay: cytotoxicity toward BJ-TERT-LT-ST fibroblasts, dose response, cell-based, RAS-independent, luminescence (AID 1935); type: functional; conditions: Homo sapiens;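 note: BJ fibroblasts immortalized with TERT plus LT and ST oncogenes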
[7] = cytotoxicity toward DRD oncogenic fibroblasts, dose response, cell-based, non-viral oncogenic, luminescence (AID 1934); type: functional; conditions: Homo sapiens
[8] = inhibitors of PGC1a acetylation in cells, dose response, cell-based, cherry-picked samples (AID 720514); type: functional;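 note: potency may reflect raised or lowered acetylation signal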
[9] = target: Large T antigen (Simian virus 40, UniProt P03070); type: functional, Betapolyomavirus macacae;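 note: Confirmatory-stage PubChem screen for compounds that inhibit SV40 T antigen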
[10] = inhibitors of Vif binding to APOBEC3G peptide, primary screen, biochemical, TR-FRET, GST-Vif 1-94, biotin-A3G peptide, dose response retest (AID 1117319); type: functional;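 note: TR-FRET signal of purified GST-Vif binding a biotinylated A3G peptide; inhibitors lower the FRET signal by blocking Vif and A3G binding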
[11] = Luminescence Cell-Based Dose Confirmation HTS to Identify Activators of 5'UTR Stem-Loop Driven Alpha-Synuclein mRNA Translation in H4 Neuroglioblastoma Cells. [Related pubchem assays: 1829 (Project Summary), 1814 (Primary HTS)]; type: functional
[12] = Luminescence Cell-Based Dose Response HTS to Identify Activators of Luciferase Translation or Activity in H4 […] Cells. [Related pubchem assays: 1829 (Project Summary), 1814 (Primary HTS)]; type: functional
[13] = system: H4; assay: Luminescence Cell-Based Dose Response HTS to Identify Activators of 5'UTR Stem-Loop Driven Prion Protein mRNA Translation in H4 Neuroglioblastoma Cells. [Related pubchem assays: 1829 (Project Summary), 1814 (Primary HTS)]; type: functional; conditions: Homo sapiens
[14] = target: Eukaryotic translation initiation factor 4E (Mus musculus, UniProt P63073); assay: eIF4E–eIF4G protein interaction inhibitors, dose response, biochemical, TR-FRET (AID 855); type: functional;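 note: potency for disrupting eIF4E binding to eIF4GI seen as loss of FRET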
[15] = target: T1, Hexokinase HKDC1 (Homo sapiens, UniProt Q2TB90); assay: HKDC1 hexokinase inhibitors, dose response, biochemical, W721R variant (AID 504729); type: functional
T1 sequence (Q2TB90 whole entry): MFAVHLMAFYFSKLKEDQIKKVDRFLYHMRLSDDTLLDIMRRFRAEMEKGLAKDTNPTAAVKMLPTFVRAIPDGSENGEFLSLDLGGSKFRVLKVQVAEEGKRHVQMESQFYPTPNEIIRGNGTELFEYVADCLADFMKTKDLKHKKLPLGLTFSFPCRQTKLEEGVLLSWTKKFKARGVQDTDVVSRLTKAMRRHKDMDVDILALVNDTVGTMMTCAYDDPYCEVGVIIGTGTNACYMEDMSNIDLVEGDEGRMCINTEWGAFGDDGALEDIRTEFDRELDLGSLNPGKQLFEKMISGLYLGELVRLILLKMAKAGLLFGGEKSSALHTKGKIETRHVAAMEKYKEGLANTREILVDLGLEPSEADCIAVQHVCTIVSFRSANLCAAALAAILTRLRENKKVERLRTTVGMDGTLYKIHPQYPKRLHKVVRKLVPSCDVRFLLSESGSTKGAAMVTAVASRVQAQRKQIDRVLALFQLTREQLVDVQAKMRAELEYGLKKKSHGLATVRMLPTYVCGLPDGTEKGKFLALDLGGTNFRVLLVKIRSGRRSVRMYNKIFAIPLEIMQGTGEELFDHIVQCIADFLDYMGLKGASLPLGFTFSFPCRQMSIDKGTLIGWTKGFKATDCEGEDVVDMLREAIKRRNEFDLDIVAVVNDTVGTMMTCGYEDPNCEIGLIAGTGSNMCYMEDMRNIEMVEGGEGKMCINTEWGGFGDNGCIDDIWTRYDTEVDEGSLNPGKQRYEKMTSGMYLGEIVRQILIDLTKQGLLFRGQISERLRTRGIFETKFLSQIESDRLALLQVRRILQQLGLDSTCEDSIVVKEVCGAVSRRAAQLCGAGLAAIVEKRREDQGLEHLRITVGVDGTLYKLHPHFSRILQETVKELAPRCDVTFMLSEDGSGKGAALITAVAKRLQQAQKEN

[16] = P. falciparum Dd2 growth inhibitors, dose response, SYBR Green, cherry-picked samples (AID 1159567); type: functional, cell-based
[17] = HepG2 cell cytotoxicity, dose response, cytotoxicity control, cherry-picked samples (AID 1159577); type: functional, cell-based
[18] = system: Streptococcus sp. 'group A'; assay: growth inhibition of control SK(-) GAS strain, dose response, counter-screen for streptokinase expression inhibitor project, luminescence, kanamycin, BacTiterGlo, confirmation (AID 1900); type: functional, organism-based
[19] = target: T2, Streptokinase A (Streptococcus pyogenes serotype M1, UniProt P10520); assay: S. pyogenes streptokinase expression inhibitors, potency, dose response, plasminogen activation absorbance, OD405 (AID 1914); type: functional, Streptococcus pyogenes M1 GAS;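 note: secreted streptokinase activity via plasminogen activation per viability signal from cell pellet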
T2 sequence (P10520 whole entry): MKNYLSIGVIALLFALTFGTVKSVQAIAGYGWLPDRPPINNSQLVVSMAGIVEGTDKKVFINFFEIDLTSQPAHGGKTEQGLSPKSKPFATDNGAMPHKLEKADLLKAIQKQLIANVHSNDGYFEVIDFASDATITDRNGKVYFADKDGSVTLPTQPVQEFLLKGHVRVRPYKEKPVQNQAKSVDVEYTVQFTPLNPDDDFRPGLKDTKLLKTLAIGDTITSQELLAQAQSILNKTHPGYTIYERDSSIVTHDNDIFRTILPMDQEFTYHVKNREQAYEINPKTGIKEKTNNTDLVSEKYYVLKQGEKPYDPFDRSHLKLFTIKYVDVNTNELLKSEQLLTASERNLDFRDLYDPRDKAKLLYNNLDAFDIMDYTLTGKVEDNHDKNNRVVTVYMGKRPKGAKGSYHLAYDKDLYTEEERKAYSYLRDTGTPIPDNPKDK

[20] = microbe, parasite or virus in culture; type: functional; conditions: Mycobacterium tuberculosis
[21] = system: Streptococcus; assay: Group A Streptococcus viability loss, dose response, counter-screen for streptokinase expression inhibitor project, luminescence, BacTiterGlo (AID 1915); type: functional, organism-based;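 note: potency for reduction of bacterial viability or growth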
[22] = Luminescence Cell-Based Dose Retest to Confirm Inhibitors of Cancer Stem Cells. [Related pubchem assays (depositor defined):AID2717, AID2721]; type: functional; conditions: Homo sapiens
[23] = target: T3, X-box-binding protein 1 (Homo sapiens, UniProt P17861); type: functional, Cricetulus griseus;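 note: confirmatory dose-response counter-screen serving a CHOP assay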
T3 sequence (P17861 whole entry): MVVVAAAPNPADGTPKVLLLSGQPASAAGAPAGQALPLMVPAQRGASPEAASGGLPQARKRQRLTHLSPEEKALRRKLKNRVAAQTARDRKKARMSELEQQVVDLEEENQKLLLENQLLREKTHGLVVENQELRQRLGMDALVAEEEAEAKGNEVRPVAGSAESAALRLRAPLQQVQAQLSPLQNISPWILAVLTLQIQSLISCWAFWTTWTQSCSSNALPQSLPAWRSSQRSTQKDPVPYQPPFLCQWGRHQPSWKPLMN

[24] = system: INS1; assay: beta cell apoptosis inhibitors, cytokine rescue, dose response, luminescence, retest (AID 449756); type: functional, cell-based; conditions: Rattus norvegicus;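 note: cell death triggered by IL-1 beta plus TNF-alpha plus IFN-gamma mixture; protective hits raise ATP signal compared with cytokine alone wells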

Eukaryotic translation initiation factor 4E, sequence (P63073 whole entry): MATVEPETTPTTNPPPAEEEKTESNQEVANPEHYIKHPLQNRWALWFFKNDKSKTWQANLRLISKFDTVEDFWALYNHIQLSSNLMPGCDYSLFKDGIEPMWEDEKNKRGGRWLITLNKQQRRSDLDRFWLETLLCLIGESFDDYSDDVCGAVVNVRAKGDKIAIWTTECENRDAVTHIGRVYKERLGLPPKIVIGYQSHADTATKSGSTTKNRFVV
Large T antigen, sequence (P03070 whole entry): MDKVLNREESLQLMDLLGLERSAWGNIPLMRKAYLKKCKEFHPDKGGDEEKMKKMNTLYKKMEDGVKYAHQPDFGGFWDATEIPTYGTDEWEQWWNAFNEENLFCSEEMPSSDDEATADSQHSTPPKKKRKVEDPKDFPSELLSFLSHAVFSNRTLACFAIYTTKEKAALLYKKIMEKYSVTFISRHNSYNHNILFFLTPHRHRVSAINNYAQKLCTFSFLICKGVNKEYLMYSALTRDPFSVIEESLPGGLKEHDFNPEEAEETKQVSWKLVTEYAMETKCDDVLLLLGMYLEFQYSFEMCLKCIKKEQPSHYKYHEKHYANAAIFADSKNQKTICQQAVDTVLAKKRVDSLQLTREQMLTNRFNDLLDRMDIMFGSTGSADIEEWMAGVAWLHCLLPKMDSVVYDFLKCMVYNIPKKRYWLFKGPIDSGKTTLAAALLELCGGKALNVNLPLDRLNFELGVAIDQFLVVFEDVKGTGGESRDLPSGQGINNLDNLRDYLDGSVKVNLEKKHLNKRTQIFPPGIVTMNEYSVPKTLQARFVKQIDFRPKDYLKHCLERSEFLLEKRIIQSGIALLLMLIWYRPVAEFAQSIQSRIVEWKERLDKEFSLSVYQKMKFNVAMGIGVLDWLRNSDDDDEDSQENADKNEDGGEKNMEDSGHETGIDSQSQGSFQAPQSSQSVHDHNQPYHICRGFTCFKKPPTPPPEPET

For CCOc1ccc(N(CC(=O)Nc2ccccc2OC)S(=O)(=O)c2ccccc2)cc1, the EC50 [1] was 4.97 µM (active), the EC50 [2] was 0.928 µM (active) and the EC50 [3] was 0.36 µM (active). For the same compound, the EC50 [4] was 0.323 µM (active), the EC50 [5] was 20.3 µM (active) and the EC50 [6] was 0.804 µM (active). For the same compound, the EC50 [7] was 0.663 µM (active) and the AC50 [8] was 30.7 µM (active).
In the case of COc1cc([N+](=O)[O-])ccc1NC(=O)Oc1ccc(NC(C)=O)cc1, the IC50 [9] is reported as 8.79 µM (active) and the IC50 [10] is reported as > 100 µM (active).
For Cc1ccc(NC2c3ncccc3C(=O)N2c2ccccc2C)cc1C (stereo not drawn), the EC50 [11] was 12 µM (active), the EC50 [12] was 16.5 µM (active) and the EC50 [13] was 9.38 µM (active). For the same compound, the IC50 [14] was 9.59 µM (active) and the IC50 [15] was 11.6 µM (active).
In the case of COc1ccc(CN2C(=O)c3cccnc3C2O)cc1 (stereo not drawn), the IC50 [15] is reported as 21.5 µM (inactive).
For CN(C)c1nc(SCCOC(=O)COc2ccc(Cl)cc2Cl)nc(N(C)C)n1, the AC50 [8] was 26.1 µM (active).
With OC[C@@H]1[C@@H](c2ccc(C#CC3CCCC3)cc2)[C@H]2CN(CCC(F)(F)F)CCCCN12 the AC50 [8] was 12.9 µM (active), the AC50 [16] was 1.02 µM (active) and the AC50 [17] was 8.47 µM (active).
With Cc1cc(/C=N/n2cnnc2)c(C)n1-c1cccc(Cl)c1 the IC50 [10] was > 100 µM (active).
With C(=N\Nc1ncnc2sc3c(c12)CCC3)/c1cccs1 the EC50 [18] was 15.8 µM (active), the EC50 [19] was > 150 µM (not active) and the CC50 [20] was 15.7 µM (active). The EC50 [21] was 19.5 µM (active), the AC50 [22] was 5.38 µM (active) and the “Absolute IC50 (XBP1)” value [23] was 10 µM. The AC50 [24] was 5.3 µM (active).
